Results reported in US6365652B2, “Trisaryl-1,3,5-triazine ultraviolet light absorbers” (Ciba Specialty Chemicals Corporation, priority 1997, dated 2002).
One block for each compound: values may come before it.

Assays:
[1] = Solubility in solvent mixture (1:1:1 xylenes:MAK:PM acetate); assay type: physicochemical
Text: Compound E (the disubstituted amide) was compared against Compound B (the monosubstituted amide) for solubility in a 1:1:1 mixture of xylenes:methyl amyl ketone (MAK):propylene glycol methyl ether acetate (PM acetate), which is a typical coatings solvent mixture.

[2] = Compatibility with acrylic urethane Component I (polyol component of two-component clearcoat); assay type: physicochemical; settings: for Compatibility in fully formulated coating: after addition of DESMODUR N-3390 and 17 parts solvent mixture
Text: Compound E was again compared against Compound B, this time for compatibility in the following resin formulation which is the polyol component of a typical two-component acrylic urethane clearcoat formulation:
100 parts Acrylic Resin—JONCRYL® CDX-588 (70% Solids) (S.C. Johnson & Son, Inc., Racine, Wis.
5 parts—1 part Dibutyltin Dilaurate (T-12, Air Products, Allentown, Pa.)
45 parts Solvent Mixture (1:1:1 xylenes:MAK:PM Acetate)
1 part Hindered Amine Light Stabilizer (SANDUVOR® S-3055, Clariant Corp., Charlotte, N.C.).

[3] = Bonding/migration in acrylic/melamine clearcoat on RIM substrate, microtome UV depth profile at 340 nm; settings: 3% on total resin solids, cure 30 min at 135° C.
Description: Compound E was investigated to determine whether it forms a chemical bond with the acrylic/melamine resin matrix during curing. For this purpose, it was added to a clearcoat formulation and coated onto a plastic substrate, as described below. Non-bondable UV absorbers readily migrate from clearcoats into plastic substrates upon curing the coating. An absorber which bonds to the matrix should not migrate into the plastic substrate to any significant extent.
The acrylic/melamine resin formulation utilized was as follows: […]
40.6 g JONCRYL® 510 acrylic resin (S.C. Johnson, Inc. Racine, Wis.)
17.5 g CYMEL® 303 crosslinker (Cytec Industries, Inc., West Paterson, N.J.)
0.52 g CYCAT® 4040 catalyst (Cytec Industries, Inc., West Paterson, N.J.)
0.50 g DC 57 flow control agent […]
After cure, the coating and part of the substrate were microtomed into 10 μm thick slices parallel to the coating surface. […] Each microtomed slice was mounted between two microscope slides and its UV absorption spectrum measured using a Perkin-Elmer Lambda 2 spectrophotometer. The absorbance per micrometer sample thickness was determined at the prominent 340 nm absorption band intrinsic to this UVA.
The results of the UV analysis were plotted as a function of depth. […] By measuring the area under the curve, the quantity of Compound E remaining in the coatings and the fraction that migrated into the substrates were estimated. […]

[4] = QUV accelerated weathering (UVB-313 bulbs) of acrylic urethane clear coat; settings: Example 10
Text: Compounds D and E were formulated in clear coatings which were applied to panels for accelerated weathering testing as follows. Compound D or E (1% or 2% based on total resin solids) and/or SANDUVOR® S-3055 HALS-type stabilizer (1% based on total resin solids) were predissolved in the solvent mixture (to a 5-10% solids level) and added to the clear acrylic urethane formulation given in Table 3 below. Components I and II were mixed just before use. Cold roll steel panels measuring 4″×12″ and precoated with an electro-coat primer ED505A and a white polyester acrylic melamine base-coat #542AB839, obtained from ACT Laboratories, Inc. (Hillsdale, Mich.) were coated with the clear coating formulations of Table 3. The draw-down technique, using WC-60 WireCators™ (Leneta Co., Hohokus, N.J.), was used to apply the clear coat to the pre-coated panels. The clear coats were allowed to flash for 10 min at ambient temperature and cured for 30 min at 135° C.
Accelerated weathering was carried out on the clear coating formulations using a QUV device equipped with UVB-313 fluorescent bulbs. […] Specular properties such as gloss ([…], ASTMD523) and distinctness of image (“DOI”) (Dorigon Meter D47R-6FT, Hunter Associate Laboratory) and yellowing (“Delta b”) were measured as a function of weathering time. […]

[5] = 1 wt % on total resin solids, 5° C.
[6] = 1 wt % on total resin solids, 23° C.
[7] = 1 wt % on total resin solids, 60° C.

Solubility ([1]; 5 wt %, 5° C.): No
Solubility ([1]; 5 wt %, 23° C.): No
Solubility ([1]; 5 wt %, 50° C.): did not dissolve
Solubility ([1]; 5 wt %, 50° C., listed as CEX1 (B)): No
Compatibility [2, 5]: not compatible
Compatibility ([2]; 1 wt % on total resin solids, 5° C., listed as CEX1 (B)): No
Compatibility [2, 6]: not compatible
Compatibility ([2]; 1 wt % on total resin solids, 23° C., listed as CEX1 (B)): No
Compatibility [2, 7]: not compatible
Compatibility ([2]; 1 wt % on total resin solids, 60° C., listed as CEX1 (B)): No
Compatibility in fully formulated coating [2]: did not result in the dissolution
Structure (SMILES): Cc1ccc(-c2nc(-c3ccc(C)cc3C)nc(-c3ccc(OCC(=O)NCCO)cc3O)n2)c(C)c1 [Compound B, 4-[4,6-Bis(2′4′-dimethylphenyl)-1,3,5-triazin-2-yl]-3-hydroxyphenoxyacetic acid, N-(2-hydroxyethyl)amide, reference compound]

Solubility ([1]; 5 wt %, 5° C.): Yes
Solubility ([1]; 5 wt %, 23° C.): Yes
Solubility ([1]; 5 wt %, 50° C.): Yes
Solubility ([1]; 10 wt %, 5° C.): did not crystallize out of solution
Solubility ([1]; 10 wt %, 5° C., listed as EX1 (E)): Yes
Solubility ([1]; 10 wt %, 23° C.): Yes
Solubility ([1]; 10 wt %, 50° C.): Yes
Dissolution in the solvent mixture ([1]; 10 wt %, temperature not stated): fully dissolved
Compatibility [2, 5]: Yes
Compatibility [2, 6]: Yes
Compatibility [2, 7]: Yes
Compatibility ([2]; 2 wt % on total resin solids, 5° C.): Yes
Compatibility ([2]; 2 wt % on total resin solids, 23° C.): Yes
Compatibility ([2]; 2 wt % on total resin solids, 60° C.): Yes
Compatibility with the resin component ([2]; 5° C., concentration not given): compatible
Fraction of added compound remaining in the coating [3]: about 95%
Lifetime of coating compositions (percent gloss retention, percent DOI retention, delta b) compared to the unstabilized composition [4]: extend the lifetime
Structure (SMILES): CCCCN(CCO)C(=O)COc1ccc(-c2nc(-c3ccc(C)cc3C)nc(-c3ccc(C)cc3C)n2)c(O)c1 [Compound E, 4-[4,6-Bis(2′4′-dimethylphenyl)-1,3,5-triazin-2-yl]-3-hydroxyphenoxyacetic acid, N-(n-butyl)-N-(2-hydroxyethyl)amide]
Compatibility in fully formulated coating [2]: nor did it adversely affect the compatibility
